In brackets after ≈: the same amount, converted by molar mass. Like-named read-outs stand apart in the source and are kept apart here.
Assays:
[1] = PAMPA permeability pH 7.4
[2] = Microsome Stability (15 min), rat; format: in vitro ADME; conditions: microsomes, Phase I (NADPH), read-out: Microsome Stability (15 min) T ½ Phase I rat
[3] = biological target: PI3K alpha (Homo sapiens, UniProt P42336); test: PI3K-alpha Fluorescence Polarization Assay; format: biochemical
[4] = Solubility pH 7.4; conditions: pH 7.4, aqueous buffer
[5] = Buffer Stability (37° C.)
[6] = Microsome Stability (15 min), human; format: in vitro ADME; conditions: microsomes, Phase I (NADPH), read-out: Microsome Stability (15 min) T ½ Phase I human
[7] = Plasma Stability (37° C.), rat
[8] = Microsome Stability (15 min), nude mouse; format: in vitro ADME; conditions: microsomes, Phase I (NADPH), read-out: Microsome Stability (15 min) T ½ Phase I nude mouse
[9] = In vivo blood/plasma and tumor levels of prodrug and metabolites after 50 mg, kg po; conditions: 50 mg

Chain of PI3K alpha (P42336 whole entry, species assumed): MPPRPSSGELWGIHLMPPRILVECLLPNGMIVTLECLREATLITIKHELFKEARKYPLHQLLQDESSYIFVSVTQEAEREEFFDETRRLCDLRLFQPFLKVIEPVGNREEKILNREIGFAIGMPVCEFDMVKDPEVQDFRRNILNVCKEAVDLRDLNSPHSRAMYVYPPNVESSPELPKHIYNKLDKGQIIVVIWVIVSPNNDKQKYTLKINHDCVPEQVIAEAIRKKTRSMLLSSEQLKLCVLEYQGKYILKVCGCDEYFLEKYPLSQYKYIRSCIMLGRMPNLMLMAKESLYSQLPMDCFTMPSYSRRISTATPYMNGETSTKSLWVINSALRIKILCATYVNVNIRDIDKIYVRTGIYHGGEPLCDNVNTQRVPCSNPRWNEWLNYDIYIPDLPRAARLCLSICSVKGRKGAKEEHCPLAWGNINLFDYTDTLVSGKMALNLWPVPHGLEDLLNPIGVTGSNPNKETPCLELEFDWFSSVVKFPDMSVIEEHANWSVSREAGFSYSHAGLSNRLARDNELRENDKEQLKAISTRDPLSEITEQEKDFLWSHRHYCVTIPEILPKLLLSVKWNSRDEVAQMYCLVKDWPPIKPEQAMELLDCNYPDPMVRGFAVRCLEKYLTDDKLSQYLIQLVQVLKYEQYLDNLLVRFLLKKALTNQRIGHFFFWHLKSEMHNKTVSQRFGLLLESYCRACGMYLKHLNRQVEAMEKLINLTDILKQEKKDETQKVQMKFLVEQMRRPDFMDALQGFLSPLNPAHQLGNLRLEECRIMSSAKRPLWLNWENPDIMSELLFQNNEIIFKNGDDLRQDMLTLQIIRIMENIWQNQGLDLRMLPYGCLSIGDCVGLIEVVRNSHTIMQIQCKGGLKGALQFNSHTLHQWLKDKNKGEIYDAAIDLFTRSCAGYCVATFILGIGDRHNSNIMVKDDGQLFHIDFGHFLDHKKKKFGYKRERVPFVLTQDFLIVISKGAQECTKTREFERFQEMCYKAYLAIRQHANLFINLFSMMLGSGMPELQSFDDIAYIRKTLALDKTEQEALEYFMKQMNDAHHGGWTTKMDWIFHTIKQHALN
Chain of PI3K alpha (P27986 whole entry partner, species assumed): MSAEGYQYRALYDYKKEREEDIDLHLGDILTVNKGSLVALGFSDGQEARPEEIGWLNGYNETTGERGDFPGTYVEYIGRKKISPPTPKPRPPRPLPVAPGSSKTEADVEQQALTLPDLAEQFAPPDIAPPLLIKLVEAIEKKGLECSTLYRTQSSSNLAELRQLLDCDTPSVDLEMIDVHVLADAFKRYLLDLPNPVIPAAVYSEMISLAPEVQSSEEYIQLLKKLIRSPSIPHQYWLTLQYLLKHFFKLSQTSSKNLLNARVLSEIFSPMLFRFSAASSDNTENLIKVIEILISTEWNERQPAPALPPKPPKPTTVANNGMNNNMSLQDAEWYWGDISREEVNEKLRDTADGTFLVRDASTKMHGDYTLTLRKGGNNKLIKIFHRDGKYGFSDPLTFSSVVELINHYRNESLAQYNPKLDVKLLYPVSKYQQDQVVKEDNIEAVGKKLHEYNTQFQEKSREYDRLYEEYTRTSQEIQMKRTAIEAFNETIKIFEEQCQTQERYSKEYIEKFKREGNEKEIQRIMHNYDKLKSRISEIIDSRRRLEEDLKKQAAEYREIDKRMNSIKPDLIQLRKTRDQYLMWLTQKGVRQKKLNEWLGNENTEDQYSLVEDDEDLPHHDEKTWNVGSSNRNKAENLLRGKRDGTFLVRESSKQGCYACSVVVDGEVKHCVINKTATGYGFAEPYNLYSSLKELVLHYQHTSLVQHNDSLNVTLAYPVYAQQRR

| PAMPA Pe [1] | IC50 ([3]; read-out: PI3K alpha Mean IC50) | solubility [4] | Buffer Stability (37° C.) % Remaining (at 16-23 hours) SGF [5] | Buffer Stability (37° C.) % Remaining (at 16-23 hours) SIF [5] | Buffer Stability (37° C.) % Remaining (at 16-23 hours) pH 1 [5] | Buffer Stability (37° C.) % Remaining (at 16-23 hours) pH 4.5 [5] | Buffer Stability (37° C.) % Remaining (at 16-23 hours) pH 6.6 [5] | Buffer Stability (37° C.) % Remaining (at 16-23 hours) pH 7.4 [5] | Buffer Stability (37° C.) % Remaining (at 16-23 hours) pH 9 [5] | half-life ([8]; nude, mouse) | SMILES | half-life [2] | half-life [6] | Plasma Stability (37° C.) % Remaining (3-3.5 hours) rat [7] | half-life [8] | IC50 [3] | plasma prodrug concentration ([9]; 0.5 h) | plasma prodrug concentration ([9]; 2 h) | plasma prodrug concentration ([9]; 6 h (third value)) |
| --- | --- | --- | --- | --- | --- | --- | --- | --- | --- | --- | --- | --- | --- | --- | --- | --- | --- | --- | --- |
| 0.12 10e−6 cm/s | 0.472 µM |  |  |  |  |  |  |  |  |  | COc1ccc2[nH]c(-c3ccccc3)c(/C=C3\Oc4cc(OC(=O)c5ccccc5)cc(OC(=O)c5ccccc5)c4C3=O)c2c1 [Example 6, (2Z)-2-[(5-methoxy-2-phenyl-1H-indol-3-yl)methylene]-3-oxo-2,3-dihydro-1-benzofuran-4,6-diyl dibenzoate] |  |  |  |  |  |  |  |  |
| 0 10e−6 cm/s | 8.53 µM |  | 99% | 64% | 96% | 73% | 75% | 4% | 0% |  | COc1ccc2c(c1)c(/C=C1\Oc3cc(OC(=O)c4ccccc4)cc(OC(=O)c4ccccc4)c3C1=O)c(C)n2CCN1CCN(C)CC1 [Example 16, (2Z)-2-({5-methoxy-2-methyl-1-[2-(4-methylpiperazin-1-yl)ethyl]-1H-indol-3-yl}methylene)-3-oxo-2,3-dihydro-1-benzofuran-4,6-diyl dibenzoate] | 10 min | > 30 min |  |  |  |  |  |  |
| 0 10e−6 cm/s | 0.181 µM |  | 106% | 35% | 104% | 74% | 60% | 54% | 0% | > 30 min | COc1ccc2[nH]c(-c3ccccc3)c(/C=C3\Oc4cc(OC(=O)Oc5ccccc5)ccc4C3=O)c2c1 [Example 19, (2Z)-2-[(5-methoxy-2-phenyl-1H-indol-3-yl)methylene]-3-oxo-2,3-dihydro-1-benzofuran-6-yl phenyl carbonate] | > 30 min | 28 min | 10% |  |  |  |  |  |
| 0 10e−6 cm/s | 0.013 µM |  | 87% | 0% | 80% | 37% | 42% | 0% | 0% | 4 min | COC(=O)Oc1cc(OC(=O)OC)c2c(c1)O/C(=C\c1c(-c3ccccc3)[nH]c3ccc(OC)cc13)C2=O [Example 22, (2Z)-2-[(5-methoxy-2-phenyl-1H-indol-3-yl)methylene]-3-oxo-2,3-dihydro-1-benzofuran-4,6-diyl dimethyl biscarbonate] |  | 3 min | 0% |  |  |  |  |  |
| 0 10e−6 cm/s | > 10 µM |  | 104% | 0% | 86% | 71% | 50% | 5% | 0% |  | COc1ccc2c(c1)c(/C=C1\Oc3cc(OC(=O)c4ccccc4)cc(OC(=O)c4ccccc4)c3C1=O)cn2CCCN(C)C [Example 24, (2Z)-2-({1-[3-(dimethylamino)propyl]-5-methoxy-1H-indol-3-yl}methylene)-3-oxo-2,3-dihydro-1-benzofuran-4,6-diyl dibenzoate] | 12 min | 22 min | 6% |  |  |  |  |  |

Second part, the compound before the results:

| SMILES | PAMPA Pe [1] | IC50 ([3]; read-out: PI3K alpha Mean IC50) | solubility [4] | Buffer Stability (37° C.) % Remaining (at 16-23 hours) SGF [5] | Buffer Stability (37° C.) % Remaining (at 16-23 hours) SIF [5] | Buffer Stability (37° C.) % Remaining (at 16-23 hours) pH 1 [5] | Buffer Stability (37° C.) % Remaining (at 16-23 hours) pH 4.5 [5] | Buffer Stability (37° C.) % Remaining (at 16-23 hours) pH 6.6 [5] | Buffer Stability (37° C.) % Remaining (at 16-23 hours) pH 7.4 [5] | Buffer Stability (37° C.) % Remaining (at 16-23 hours) pH 9 [5] | half-life ([8]; nude, mouse) | half-life [2] | half-life [6] | Plasma Stability (37° C.) % Remaining (3-3.5 hours) rat [7] | half-life [8] | IC50 [3] | plasma prodrug concentration ([9]; 0.5 h) | plasma prodrug concentration ([9]; 2 h) | plasma prodrug concentration ([9]; 6 h (third value)) |
| --- | --- | --- | --- | --- | --- | --- | --- | --- | --- | --- | --- | --- | --- | --- | --- | --- | --- | --- | --- |
| Cn1cc(/C=C2\Oc3cc(O)cc(O)c3C2=O)c2c(-c3ccccc3)cccc21 [(2Z)-4,6-dihydroxy-2-[(1-methyl-4-phenyl-1H-indol-3-yl)methylene]-1-benzofuran-3(2H)-one] | 0.04 10e−6 cm/s |  |  |  |  |  |  |  |  |  |  | 21 min |  |  |  |  |  |  |  |
| COC(=O)Oc1cc(OC(=O)OC)c2c(c1)O/C(=C\c1cn(CCCN(C)C)c3ccc(OC)cc13)C2=O [Example 13, (2Z)-2-({1-[3-(dimethylamino)propyl]-5-methoxy-1H-indol-3-yl}methylene)-3-oxo-2,3-dihydro-1-benzofuran-4,6-diyl dimethyl biscarbonate] | 0.19 10e−6 cm/s | 0.313 µM | 43 µg/mL (≈ 82 µM) |  |  |  |  |  |  |  |  |  |  |  |  |  |  |  |  |
| COc1ccc2c(c1)c(/C=C1\Oc3cc(OC(C)=O)cc(OC(C)=O)c3C1=O)cn2CCCN(C)C [Example 15, (2Z)-2-({1-[3-(dimethylamino)propyl]-5-methoxy-1H-indol-3-yl}methylene)-3-oxo-2,3-dihydro-1-benzofuran-4,6-diyl diacetate] | 0.24 10e−6 cm/s | 0.082 µM | 49 µg/mL |  |  |  |  |  |  |  |  |  |  |  |  |  |  |  |  |
| COc1ccc2[nH]c(-c3ccccc3)c(/C=C3\Oc4cc(OC(=O)N(C)C)ccc4C3=O)c2c1 [Example 18, (2Z)-2-[(5-methoxy-2-phenyl-1H-indol-3-yl)methylene]-3-oxo-2,3-dihydro-1-benzofuran-6-yl dimethylcarbamate] | Undetected |  |  | 100% | 101% | 99% | 100% | 100% | 100% | 99% |  | 28 min | 13 min | 0% | > 30 min | 6.35 µM |  |  |  |
| COc1ccc2[nH]c(-c3ccccc3)c(/C=C3\Oc4cc(OC(=O)N(c5ccccc5)c5ccccc5)ccc4C3=O)c2c1 [Example 20, (2Z)-2-[(5-methoxy-2-phenyl-1H-indol-3-yl)methylene]-3-oxo-2,3-dihydro-1-benzofuran-6-yl diphenylcarbamate] | Undetected | > 10 µM |  | 100% | 100% | 100% | 100% | 100% | 100% | 95% |  | > 30 min | > 30 min | 91% | > 30 min |  |  |  |  |
| COc1ccc2c(c1)c(/C=C1\Oc3cc(OC(=O)N(c4ccccc4)c4ccccc4)cc(OC(=O)N(c4ccccc4)c4ccccc4)c3C1=O)cn2CCCN(C)C [Example 21, (2Z)-2-({1-[3-(dimethylamino)propyl]-5-methoxy-1H-indol-3-yl}methylene)-3-oxo-2,3-dihydro-1-benzofuran-4,6-diyl bis(diphenylcarbamate)] | 0 10e−6 cm/s |  |  | 99% | 45% | 118% | 103% | 91% | 98% | 87% |  |  |  | 107% | > 30 min | > 10 µM |  |  |  |
| COc1ccc2c(c1)c(/C=C1\Oc3cc(OC(=O)N(C(C)C)C(C)C)cc(OC(=O)N(C(C)C)C(C)C)c3C1=O)c(C)n2CCN1CCN(C)CC1 [Example 28, (2Z)-2-({5-methoxy-2-methyl-1-[2-(4-methylpiperazin-1-yl)ethyl]-1H-indol-3-yl}methylene)-3-oxo-2,3-dihydro-1-benzofuran-4,6-diyl bis(diisopropylcarbamate)] | 0.05 10e−6 cm/s |  |  |  |  |  |  |  |  |  |  |  | 8 min |  | 24 min | 9.5 µM | 1141, ng, ml | 940, ng, ml | 1106 ng, ml |
| CCOP(=O)(OCC)Oc1cc2c(c(OP(=O)(OCC)OCC)c1)C(=O)/C(=C/c1c(-c3ccccc3)[nH]c3ccc(OC)cc13)O2 [Example 32, tetraethyl (2Z)-2-[(5-methoxy-2-phenyl-1H-indol-3-yl)methylene]-3-oxo-2,3-dihydro-1-benzofuran-4,6-diyl bis(phosphate)] | 0 10e−6 cm/s |  |  |  |  |  |  |  |  |  |  | 7 min | 2 min |  |  | 11 µM |  |  |  |
| CCOP(=O)(OCC)Oc1ccc2c(c1)O/C(=C\c1c(-c3ccccc3)[nH]c3ccc(OC)cc13)C2=O [Example 34, diethyl (2Z)-2-[(5-methoxy-2-phenyl-1H-indol-3-yl)methylene]-3-oxo-2,3-dihydro-1-benzofuran-6-yl phosphate] | 0 10e−6 cm/s |  |  |  |  |  |  |  |  |  |  | 17 min | 26 min |  | > 30 min | 5.67 µM | 6 ng, ml | 2 ng, ml | bql |

Source: patent publication US20100061982A1, “3-SUBSTITUTED-1H-INDOLE, 3-SUBSTITUTED-1H-PYRROLO[2,3-B]PYRIDINE AND 3-SUBSTITUTED-1H-PYRROLO[3,2-B]PYRIDINE COMPOUNDS, THEIR USE AS MTOR KINASE AND PI3 KINASE INHIBITORS, AND THEIR SYNTHESES” (priority 2008, published 2010)
